Where “and” joins values, the source holds several entries; their conditions need not be identical. Identical values can stand only once.
Legend:
[1] = following oral administration; cited from earlier work
[2] = system: reperfusion-induced hypertension in uninephrectomized anesthetized rats; test: Model of acute angiotensin-mediated renal hypertension in anesthetized rats (SBP, DBP, HR); format: in vivo, rat
Description: Male Sprague-Dawley rats, weighing 250-300 g, were anaesthetized with pentobarbital sodium (35 mg/kg, i.p.) and placed on a thermic blanket. The temperature was maintained at 37° C. with a thermoregulator via a rectal probe. The animals were tracheotomized to facilitate spontaneous breathing. A polyethylene catheter was placed in the left jugular vein to allow for infusion of pentobarbital sodium to maintain anesthesia. The left femoral vein and artery were cannulated with polyethylene catheters to allow drugs administration and to monitor blood pressure, respectively.
Animals then underwent a left nephrectomy by excising the left kidney via a flank incision. The right kidney and renal vein, artery and ureter were then exposed via a right retroperitoneal incision, under a dissecting microscope. Silk threads were placed around both vessels and ureter. The cavity was then covered with Vaseline oil.
After 30-60 minutes of basal recordings of arterial blood pressure and heart rate the threads around the renal vessels and ureter were tied close to the renal hilum to induce complete renal ischemia of the right kidney. After 2 hours of ischemia, the threads were removed to allow renal reperfusion and urine output.
For irbesartan experiments and comparisons, control (vehicle) or drug (irbesartan (100 μg/kg), lercanidipine (7.5 μg/kg), or both lercanidipine (7.5 μg/kg) and irbesartan (100 μg/kg)) were administered intravenously at 5 min after reperfusion was begun.
Results were expressed as mean values ±S.E. (in the tables) and in percent change observed.
To evaluate the effects of drugs administration on blood pressure and heart rate within each group, two-way ANOVA and Dunnet's test were used (“within treatment”). To evaluate the statistical differences among the treatment groups, data are analyzed using a three-way ANOVA (analysis of variance) with repeated measures on factor time and pre-planned multiple comparisons. The analysis was performed using, for each treatment, delta values (log transformation). […] (“between treatments”).

isolated rat aorta = details: in vitro; even after repeated wash-out during 6 hours; cited from earlier work
[3] = cited from earlier work
[4] = system: reperfusion-induced hypertension in uninephrectomized anesthetized rats; test: Model of acute angiotensin-mediated renal hypertension in anesthetized rats (SBP, DBP, HR); format: in vivo, rat; remark: listed apart in the source
[5] = between treatments, three-way ANOVA on delta values, lercanidipine 7.5 μg/kg, irbesartan 100 μg/kg i.v.
[6] = between treatments, three-way ANOVA on delta values, lercanidipine 7.5 μg/kg, olmesartan free acid 10 μg/kg i.v.
[7] = between treatments, three-way ANOVA on delta values, lercanidipine 10 μg/kg, valsartan 30 μg/kg i.v.
[8] = lercanidipine 7.5 μg/kg i.v., n=6, time 0 min, basal, pre-drug
[9] = lercanidipine 7.5 μg/kg i.v., n=6, time 120 min, end of ischemia, pre-drug
[10] = lercanidipine 7.5 μg/kg i.v., n=6, time 130 min, 5 min after drug
[11] = lercanidipine 7.5 μg/kg i.v., n=6, time 135 min, 10 min after drug
[12] = lercanidipine 7.5 μg/kg i.v., n=6, time 150 min, 25 min after drug
[13] = lercanidipine 7.5 μg/kg i.v., n=6, time 165 min, 40 min after drug
[14] = lercanidipine 7.5 μg/kg i.v., n=6, time 180 min, 55 min after drug
[15] = lercanidipine 7.5 μg/kg i.v., n=6, time […], 5 min reperfusion, pre-drug
[16] = lercanidipine 10 μg/kg i.v., n=5, time 0 min, basal, pre-drug
[17] = lercanidipine 10 μg/kg i.v., n=5, time 120 min, end of ischemia, pre-drug
[18] = lercanidipine 10 μg/kg i.v., n=5, time 130 min, 5 min after drug
[19] = lercanidipine 10 μg/kg i.v., n=5, time 135 min, 10 min after drug
[20] = lercanidipine 10 μg/kg i.v., n=5, time 150 min, 25 min after drug
[21] = lercanidipine 10 μg/kg i.v., n=5, time 165 min, 40 min after drug
[22] = lercanidipine 10 μg/kg i.v., n=5, time 180 min, 55 min after drug
[23] = lercanidipine 10 μg/kg i.v., n=5, time […], 5 min reperfusion, pre-drug
[24] = within treatment vs […], lercanidipine 10 μg/kg or valsartan 30 μg/kg i.v.

## COC(=O)C1=C(C)NC(C)=C(C(=O)OC(C)(C)CN(C)CCC(c2ccccc2)c2ccccc2)C1c1cccc([N+](=O)[O-])c1 (stereo not drawn) [lercanidipine, methyl 1,1,N-trimethyl-N-(3,3-diphenylpropyl)-2-aminoethyl 1,4-dihydro-2,6-dimethyl-4-(3-nitrophenyl)pyridine-3,5-dicarboxylate]
[1]
  time of peak serum/plasma concentration: 2 to 3 h
[2]; [5]
  Diastolic blood pressure: general differences among groups: p vs Irbesartan: ns
  Diastolic blood pressure: general differences among groups: p vs Vehicle: p < 0.05
  Heart rate differences among groups: p vs Irbesartan: p < 0.001
  Heart rate differences among groups: p vs Vehicle: p < 0.01
  Systolic blood pressure differences among groups: p vs Irbesartan: ns
  Systolic blood pressure differences among groups: p vs Vehicle: ns
[2]; [6]
  Diastolic blood pressure differences among treatment groups: p vs Olmesartan: ns
  Diastolic blood pressure differences among treatment groups: p vs Vehicle: p < 0.05
  Heart rate differences among treatment groups: p vs Olmesartan: p < 0.001
  Heart rate differences among treatment groups: p vs Vehicle: p < 0.01
  Systolic blood pressure differences among treatment groups: p vs Olmesartan: ns
  Systolic blood pressure differences among treatment groups: p vs Vehicle: ns
[2]; [7]
  Diastolic blood pressure: general differences among groups: p vs Valsartan: ns
  Heart rate: general differences among groups: p vs Valsartan: p < 0.01
  Systolic blood pressure: general differences among groups: p vs Valsartan: ns
[2]; [8]
  DBP: 75.7 ± 1.7 mmHg
  HR: 383.3 ± 12.0 beats/min
  SBP: 120.7 ± 3.5 mmHg
[2]; [9]
  DBP: 63.3 ± 2.9 mmHg
  HR: 381.7 ± 7.5 beats/min
  SBP: 105.2 ± 5.3 mmHg
[2]; [10]
  HR: 434.2 ± 15.3 b beats/min
  SBP: 136.7 ± 7.4 mmHg
[2]; [11]
  HR: 426.7 ± 14.3 b beats/min
  SBP: 140.7 ± 7.1 mmHg and 140.7 ± 7.1b mmHg
[2]; [12]
  HR: 411.7 ± 12.8 b beats/min
  SBP: 143.2 ± 7.2 mmHg
[2]; [13]
  HR: 411.7 ± 15.6 b beats/min
  SBP: 144.5 ± 9.1 mmHg
[2]; [14]
  HR: 410.0 ± 18.3 b beats/min
  SBP: 136.8 ± 8.4 mmHg and 136.8 ± 8.4b mmHg
[2]; [15]
  DBP: 117.2 ± 4.4 mmHg
  HR: 346.7 ± 8.4 beats/min
  SBP: 160.7 ± 8.5 mmHg
[2]; lercanidipine 7.5 μg/kg, irbesartan 100 μg/kg i.v., alone or together
  effect on heart rate (in words): increase in heart rate
[2]; lercanidipine 7.5 μg/kg, irbesartan 100 μg/kg i.v., alone or together, 5 min after reperfusion
  effect on blood pressure (in words): statistically significant decrease in both systolic and diastolic blood pressure
[2]; lercanidipine 7.5 μg/kg, olmesartan free acid 10 μg/kg i.v., alone or together
  effect on heart rate (in words): increase in heart rate
[2]; [16]
  DBP: 69.8 ± 4.1 mmHg
  HR: 350.0 ± 3.2 beats/min
  SBP: 133.8 ± 6.1 mmHg
[2]; [17]
  DBP: 64.6 ± 4.5 mmHg
  HR: 350.0 ± 3.5 beats/min
  SBP: 134.8 ± 6.2 mmHg
[2]; [18]
  DBP: 77.4 ± 4.1 b mmHg
  HR: 434.0 ± 27.9 b beats/min
  SBP: 149.2 ± 5.4 mmHg
[2]; [19]
  DBP: 77.8 ± 3.2 b mmHg
  HR: 438.0 ± 22.2 b beats/min
  SBP: 145.4 ± 5.0 b mmHg
[2]; [20]
  DBP: 76.4 ± 7.2 b mmHg
  HR: 425.0 ± 14.7 b beats/min
  SBP: 143.8 ± 5.5 b mmHg
[2]; [21]
  DBP: 78.4 ± 8.4 b mmHg
  HR: 423.0 ± 15.1 b beats/min
  SBP: 138.2 ± 8.6 b mmHg
[2]; [22]
  DBP: 76.2 ± 7.3 b mmHg
  HR: 421.0 ± 14.7 b beats/min
  SBP: 138.8 ± 4.9 b mmHg
[2]; [23]
  DBP: 105.6 ± 5.0 mmHg
  HR: 345.0 ± 5.5 beats/min
  SBP: 167.6 ± 4.0 mmHg
[2]; within treatment vs […], lercanidipine 7.5 μg/kg or olmesartan free acid 10 μg/kg i.v.
  time of statistically significant decrease in diastolic blood pressure after administration: 5 to 55 min
[2]; [24]
  time of statistically significant decrease in systolic blood pressure after administration: 10 to 55 min
Isolated rat aorta
  isolated rat aorta response to high K+: attenuated
[3]; hypertensive patients on lercanidipine
  tachycardia reported as a side effect, patients: 0-9%
[3]; patients administered lercanidipine
  heart palpitations, patients reporting: 0-9%
[4]; [7]
  Diastolic blood pressure: general differences among groups: p vs Vehicle: p < 0.01
  Heart rate: general differences among groups: p vs Vehicle: p < 0.05
  Systolic blood pressure: general differences among groups: p vs Vehicle: ns
[4]; lercanidipine 10 μg/kg, valsartan 30 μg/kg i.v., alone or together
  effect on heart rate (in words): positive chronotropic effect
[4]; [24]
  time of statistically significant decrease in diastolic blood pressure after administration: 5 to 55 min
